Reference: patent US12371454B2, “Cyclic peptide compound having Kras inhibitory action” (priority 2019, dated 2025)
Starred links: 1 amine or outer side, 2 acyl side, 3 side chain; linkers in the order of their positions; H or OH if unused. Positions of bridges follow the written chain, without caps; N, C: chain ends. Non-standard residues stand in square brackets, D forms with d. Residues, ends and D or L forms follow the SMILES beside them. *: point of attachment. NMeAbu(3,3-F2-piperidino) = CN[C@@H](CCN1CCCC(F)(F)C1)C(=O)O; hPhe(3-Cl-4-CF3) = N[C@@H](CCc1ccc(C(F)(F)F)c(Cl)c1)C(=O)O; NMePhe(4-CF3) = CN[C@@H](Cc1ccc(C(F)(F)F)cc1)C(=O)O; Phe(2-OCF3) = N[C@@H](Cc1ccccc1OC(F)(F)F)C(=O)O; Phe(2-CF3) = N[C@@H](Cc1ccccc1C(F)(F)F)C(=O)O; NMeAbu(4,4,4-F3) = CN[C@@H](CC(F)(F)F)C(=O)O; NMePhe(4-Me) = CN[C@@H](Cc1ccc(C)cc1)C(=O)O; NMeAla(cPent) = CN[C@@H](CC1CCCC1)C(=O)O; Phe(3-I) = N[C@@H](Cc1cccc(I)c1)C(=O)O; X10 = CC(C)=CC[C@H](N[*:1])C(=O)[*:2]; NMeCha = CN[C@@H](CC1CCCCC1)C(=O)O; Hyp = O=C(O)[C@@H]1C[C@@H](O)CN1; NMeChg = CN[C@H](C(=O)O)C1CCCCC1; NMeI = CC[C@H](C)[C@H](NC)C(=O)O; NMeD = CN[C@@H](CC(=O)O)C(=O)O; NMeL = CN[C@@H](CC(C)C)C(=O)O; NMeV = CN[C@H](C(=O)O)C(C)C; NMeA = CN[C@@H](C)C(=O)O; NMeAib = CNC(C)(C)C(=O)O; Piperidide = C1CCN(*)CC1; Pyrrolidide = C1CCN(*)C1; Ac5c = NC1(C(=O)O)CCCC1; Aze = O=C(O)[C@@H]1CCN1; X1 = FC1(F)CN(*)CC1(F)F; NPrGly = CCCNCC(=O)O; Sar = CNCC(=O)O

biological target: T1, Kras and SOS1 (biotin-tagged human Kras loaded with GDP, His-tagged human SOS1) (Homo sapiens, UniProt P01116, G12D); assay: Protein-protein interaction inhibition between Kras and SOS1 (KrasGl2D-SOS PPI) using AlphaScreen; assay type: binding; details: AlphaScreen; biotin-tagged human Kras loaded with GDP, His-tagged human SOS1; read-out: KRAS G12D-SOS PPI IC50
T1 construct: made in house; host or cells: E. coli (stated for Kras only)
Outline: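 AlphaScreen format: Ni donor beads capture His-SOS1, streptavidin acceptor beads capture biotinylated Kras (E. coli-expressed, GDP-loaded post-purification). Excite 680 nm, read 520-620 nm.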

T1 sequence (P01116 1-188 isoform P01116-2 G12D): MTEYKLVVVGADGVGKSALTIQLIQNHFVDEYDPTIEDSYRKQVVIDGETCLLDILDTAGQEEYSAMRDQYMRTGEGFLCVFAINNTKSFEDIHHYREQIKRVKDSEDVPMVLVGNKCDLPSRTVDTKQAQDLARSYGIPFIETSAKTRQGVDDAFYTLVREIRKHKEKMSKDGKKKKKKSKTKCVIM

SMILES	IC50
CC[C@H](C)[C@@H]1NC(=O)[C@H](C)N(C)C(=O)C[C@@H](C(=O)N2CCCCC2)N(C)C(=O)[C@H](C(C)C)N(C)C(=O)C2(CCCC2)NC(=O)[C@@H]2CCCN2C(=O)[C@H](CCc2ccc(C(F)(F)F)c(Cl)c2)NC(=O)CN(C)C(=O)[C@H](CC2CCCCC2)N(C)C(=O)[C@@H]2CCCN2C(=O)CN(C)C1=O [Compound 1121] ([NMeA]I[Sar]P[NMeCha][Sar][hPhe(3-Cl-4-CF3)]P[Ac5c][NMeV][NMeD]-Piperidide; lactam N-11)	1.4 nM
CC[C@H](C)[C@@H]1NC(=O)[C@H](CC(C)C)N(C)C(=O)C[C@@H](C(=O)N2CCCCC2)N(C)C(=O)[C@H](CC(C)C)NC(=O)C(C)(C)N(C)C(=O)[C@H](Cc2ccccc2C(F)(F)F)NC(=O)[C@H](Cc2cccc(I)c2)NC(=O)CN(C)C(=O)[C@H](Cc2ccc(C)cc2)N(C)C(=O)CN(C)C(=O)CN(C)C1=O [Compound 1127] ([NMeL]I[Sar][Sar][NMePhe(4-Me)][Sar][Phe(3-I)][Phe(2-CF3)][NMeAib]L[NMeD]-Piperidide; lactam N-11)	260 nM
CC[C@H](C)[C@@H]1NC(=O)[C@H](CC(C)C)N(C)C(=O)C[C@@H](C(=O)N2CCCCC2)N(C)C(=O)[C@H](CC(C)C)NC(=O)C(C)(C)N(C)C(=O)[C@H](Cc2ccccc2OC(F)(F)F)NC(=O)[C@H](Cc2cccc(I)c2)NC(=O)CN(C)C(=O)[C@H](Cc2ccc(C)cc2)N(C)C(=O)[C@@H]2CCN2C(=O)[C@H](C)N(C)C1=O [Compound 1129] ([NMeL]I[NMeA][Aze][NMePhe(4-Me)][Sar][Phe(3-I)][Phe(2-OCF3)][NMeAib]L[NMeD]-Piperidide; lactam N-11)	150 nM
CCCN1CC(=O)N(C)[C@@H]([C@@H](C)CC)C(=O)N(C)[C@H](C(=O)N(C)C)CC(=O)N(C)[C@@H](CC(C)C)C(=O)N[C@@H]([C@@H](C)CC)C(=O)N(C)[C@@H](C)C(=O)N2CC[C@H]2C(=O)N(C)[C@@H](Cc2ccc(C)cc2)C(=O)N(C)CC(=O)N[C@@H](CCc2ccc(C(F)(F)F)c(Cl)c2)C(=O)N2CCC[C@H]2C1=O [Compound 1131] ([NMeL]I[NMeA][Aze][NMePhe(4-Me)][Sar][hPhe(3-Cl-4-CF3)]P[NPrGly][NMeI][NMeD]-NMe2; lactam N-11)	13 nM
CC(C)=CC[C@@H]1NC(=O)[C@H](CC(C)C)N(C)C(=O)C[C@@H](C(=O)N2CCCCC2)N(C)C(=O)[C@H](C2CCCCC2)N(C)C(=O)C2(CCCC2)NC(=O)[C@@H]2CCCN2C(=O)[C@H](CCc2ccc(C(F)(F)F)c(Cl)c2)NC(=O)CN(C)C(=O)[C@H](CC2CCCCC2)N(C)C(=O)CN(C)C(=O)CN(C)C1=O [Compound 1134] ([NMeL][X10][Sar][Sar][NMeCha][Sar][hPhe(3-Cl-4-CF3)]P[Ac5c][NMeChg][NMeD]-Piperidide; lactam N-11)	6 nM
CC[C@H](C)[C@@H]1NC(=O)[C@H](CC(C)C)N(C)C(=O)C[C@@H](C(=O)N(C)C)N(C)C(=O)[C@H]([C@@H](C)CC)N(C)C(=O)[C@H](C)NC(=O)[C@H](CCN2CCCC(F)(F)C2)N(C)C(=O)[C@H](CCc2ccc(C(F)(F)F)c(Cl)c2)NC(=O)CN(C)C(=O)[C@H](Cc2ccc(C)cc2)N(C)C(=O)[C@@H]2CCN2C(=O)[C@H](C)N(C)C1=O [Compound 1135] ([NMeL]I[NMeA][Aze][NMePhe(4-Me)][Sar][hPhe(3-Cl-4-CF3)][NMeAbu(3,3-F2-piperidino)]A[NMeI][NMeD]-NMe2; lactam N-11)	5.8 nM
CC[C@H](C)[C@@H]1NC(=O)[C@H](CC(C)C)N(C)C(=O)C[C@@H](C(=O)N2CC(F)(F)C(F)(F)C2)N(C)C(=O)[C@H](C(C)C)N(C)C(=O)C2(CCCC2)NC(=O)[C@@H]2CCCN2C(=O)[C@H](CCc2ccc(C(F)(F)F)c(Cl)c2)NC(=O)CN(C)C(=O)[C@H](CC2CCCCC2)N(C)C(=O)[C@@H]2CCN2C(=O)[C@H](C)N(C)C1=O [Compound 1136] ([NMeL]I[NMeA][Aze][NMeCha][Sar][hPhe(3-Cl-4-CF3)]P[Ac5c][NMeV][NMeD]-X1; lactam N-11)	70 nM
CCO[C@@H]1C[C@H]2C(=O)NC3(CCCC3)C(=O)N(C)[C@@H](C3CCCCC3)C(=O)N(C)[C@H](C(=O)N3CCCC3)CC(=O)N(C)[C@@H](CC(F)(F)F)C(=O)N[C@@H]([C@@H](C)CC)C(=O)N(C)CC(=O)N(C)CC(=O)N(C)[C@@H](Cc3ccc(C(F)(F)F)cc3)C(=O)N(C)CC(=O)N[C@@H](CCc3ccc(C(F)(F)F)c(Cl)c3)C(=O)N2C1 [Compound 1139] ([NMeAbu(4,4,4-F3)]I[Sar][Sar][NMePhe(4-CF3)][Sar][hPhe(3-Cl-4-CF3)][Hyp](Et)[Ac5c][NMeChg][NMeD]-Pyrrolidide; lactam N-11)	0.59 nM
CC[C@H](C)[C@@H]1NC(=O)[C@H](CC2CCCC2)N(C)C(=O)C[C@@H](C(=O)N(C)C)N(C)C(=O)[C@H]([C@@H](C)CC)N(C)C(=O)C2(CCCC2)NC(=O)[C@@H]2CCCN2C(=O)[C@H](CCc2ccc(C(F)(F)F)c(Cl)c2)NC(=O)CN(C)C(=O)[C@H](Cc2ccc(C)cc2)N(C)C(=O)[C@@H]2CCN2C(=O)[C@H](C)NC1=O [Compound 1141] ([NMeAla(cPent)]IA[Aze][NMePhe(4-Me)][Sar][hPhe(3-Cl-4-CF3)]P[Ac5c][NMeI][NMeD]-NMe2; lactam N-11)	0.97 nM
